What was measured:
[1] = test system: rabbit jugular vein ring segments; test: Maximal contractile response of vein rings in vascular smooth muscle bath; format: cell-based; settings: for Maximal Physiological Responses, Control: fresh vein rings (n = 15); for Maximal Physiological Responses, Control / Maximal Physiological Responses, Vitrified: Mean ± SEM; for Maximal Physiological Responses, % of corresponding fresh controls: vein rings vitrified with VS55 versus fresh vein rings; for Maximal Physiological Responses, Vitrified: vein rings vitrified with vitrification solution VS55 (n = 26)
Protocol: Vein rings, which are about 4 mm long segments of rabbit external jugular veins, are vitrified in VS55 by the method described above for longer external jugular vein segments, except that perfusion is not used. […] The baseline tension of all vein rings is adjusted to 0.25 to 0.75 g. Changes in tension are recorded by force transducers. After 1 hour of equilibration, the vein rings are pretested with potassium chloride for contraction. After rinsing with KH solution, the vein rings are equilibrated for another 30 minutes prior to the start of experiment. During a relaxation experiment, contraction of the vein rings is produced by 10^−6M norepinephrine and, after the contractile response plateaus, cumulative concentrations of acetylcholine (10^−10M to 10^−4M) are added to the bathing medium to induce the endothelium dependent relaxation response. In the current study, histamine, bradykinin, angiotensin II, and norepinephrine are tested in rabbit jugular vein ring segments vitrified with VS55 and fresh vein rings. Both histamine and bradykinin produce contraction in the vein via their local receptors. Norepinephrine acts directly on the adrenoceptor, while angiotensin II binds to AT receptors and acts through local renin-angiotensin systems.

artery ring segments = test: Maximal contractile response of artery rings; format: cell-based; settings: for Maximal Physiological Responses, Vitrified: artery rings vitrified with VS55 (norepinephrine n = 37, phenylephrine n = 23); for Maximal Physiological Responses, Vitrified / Maximal Physiological Responses, Control: Mean ± SEM; for Maximal Physiological Responses, % of corresponding fresh controls: artery rings vitrified with VS55 versus fresh controls; for Maximal Physiological Responses, Control: fresh rings (norepinephrine n = 16, phenylephrine n = 12)
Protocol: Vein rings, which are about 4 mm long segments of rabbit external jugular veins, are vitrified in VS55 by the method described above for longer external jugular vein segments, except that perfusion is not used. After being rewarmed, the vein rings are mounted between two stainless steel wire hooks and suspended in a vascular smooth muscle bath containing 5 ml of Krebs Henseleit (KH) solution, which is gassed continuously with 95% O2 and 5% CO2 at 37° C. The baseline tension of all vein rings is adjusted to 0.25 to 0.75 g. Changes in tension are recorded by force transducers. After 1 hour of equilibration, the vein rings are pretested with potassium chloride for contraction. After rinsing with KH solution, the vein rings are equilibrated for another 30 minutes prior to the start of experiment. During a relaxation experiment, contraction of the vein rings is produced by 10^−6M norepinephrine and, after the contractile response plateaus, cumulative concentrations of acetylcholine (10^−10M to 10^−4M) are added to the bathing medium to induce the endothelium dependent relaxation response.
Artery rings are vitrified in VS55 by the method described above for vein rings. After being rewarmed, norepinephrine and phenylephrine are tested in artery ring segments vitrified with VS55 and fresh artery rings.

Compound | Maximal Physiological Responses, Control [1] [g] | Maximal Physiological Responses, % of corresponding fresh controls [1] [%] | Maximal Physiological Responses, Vitrified [1] [g] | Maximal Physiological Responses, Vitrified (artery ring segments) [g] | Maximal Physiological Responses, % of corresponding fresh controls (artery ring segments) [%] | Maximal Physiological Responses, Control (artery ring segments) [g]
NCCc1c[nH]cn1 [Histamine, histamine] | 1.78 ± 0.19 | 87.1 | 1.55 ± 0.27 |  |  | 
NC[C@H](O)c1ccc(O)c(O)c1 [Norepinephrine, norepinephrine] | 0.99 ± 0.12 | 83.8 | 0.83 ± 0.14 | 2.58 ± 0.23 | 90.8 | 2.84 ± 0.38
CNC[C@H](O)c1cccc(O)c1 [Phenylephrine, phenylephrine] |  |  |  | 2.23 ± 0.29 | 88.3 | 2.53 ± 0.45
angiotensin II (DRVYIHPF; Angiotensin-2; UniProt P01019 25-32, looked up) | 0.58 ± 0.06 | 84.5 | 0.49 ± 0.09 |  |  | 

— US7157222B2, “Method of cryopreservation of tissues by vitrification” (Organ Recovery Systems, Inc., priority 1999, dated 2007)
